Data from patent US20030022251A1, “Gamma-secretase in vitro screening assay” (Boehringer Ingelheim Pharma KG, priority 2001, published 2003).
Entries after “also recorded” stand apart in the source; their conditions may differ.

Columns and labels:
γ-secretase [1] = assay: In vitro generation of CTFγ from membrane preparations of HEK 293 cells stably transfected with swAPP (immunoblotting with antibody 6687); format: biochemical, human; details: 250 nM DAPT
Experimental: FIG. 2: In vitro generation of CTFγ according to Example 1: (A) Time dependent in vitro production of CTFγ. Membrane preparations were incubated at 37° C. for the indicated time points. The reaction mixtures were then separated in a soluble fraction (S100; lower panel) and a pellet fraction (P100; upper panel) by ultracentrifugation. These fractions were immunoblotted with antibody 6687. Note the selective accumulation of CTFγ in the S100(lower panel) fraction after 1-2 h incubation time. Very minor amounts of CTFγ were detected in the P100 fraction, which may be due to sticking of the highly hydrophobic CTFγ to membranes or to contamination of the P100 fraction with minor amounts of soluble proteins. (B) Two independent γ-secretase inhibitors (DAPT and “Compound 1”) inhibit the in vitro production of CTFγ. Membrane preparations were incubated with (+) or without (−) 250 nM DAPT (left panel) or 50 μM CM256 (right panel). The S100 fractions of the reaction mixtures were immunoblotted with antibody 6687. […]
CTFγ was generated in vitro from membrane preparations of HEK 293 cells stably transfected with swAPP following previously described procedures (McLendon et al., 2000; Pinnix et al., 2001). […] Following SDS-PAGE on 10-20% Tris-Tricine gels (Invitrogen) samples were analyzed for CTFγ by immunoblotting with antibody 6687.

γ-secretase [2] = target: T1, γ-secretase (Homo sapiens, UniProt P49768); assay: Analysis of secreted Aβ in conditioned media of HEK 293 swAPP cells (immunoprecipitation/immunoblotting with antibodies 3926/6E10); format: cell-based; details: DAPT for 4 h, FIG. 1B lower panel
T1 construct: HEK 293 cells stably transfected with swAPP were treated with the indicated concentrations of DAPT for 4 h; endogenous in cells; host or cells: HEK 293 cells stably transfected with swAPP695 (only the substrate is transfected; the γ-secretase is the cells' own)
Experimental: FIG. 1: Identification of in vivo produced CTFγ in human cells and mouse brain according to Example 1: (A) Membrane fractions of HEK 293 cells stably transfected with Swedish mutant βAPP695 (swAPP) were analyzed by combined immunoprecipitation/immunoblotting with antibody 6687 to the C-terminus of βAPP. Three βAPP CTFs were detected (C99 (=CTFβ), C83 (=CTFα), and the approximately 6 kDa CTFγ). The same βAPP CTFs including the approximately 6 kDa CTFγ were also observed by immunoblotting with antibody 6687 in mouse brain. (B) The γ-secretase inhibitor DAPT inhibits CTFγ production. HEK 293 cells stably transfected with swAPP were treated with the indicated concentrations of DAPT for 4 h. Upper and middle panel: Membrane fractions were prepared and analyzed for βAPP CTFs by combined immunoprecipitation/immunoblotting with antibody 6687. […] Lower panel: Conditioned media were analyzed for secreted Aβ by combined immunoprecipitation/immunoblotting with antibodies 3926/6E10. […] Membrane fractions from control cells expressing PS1 wt or cells stably expressing PS1 D385N were analyzed by combined immunoprecipitation/immunoblotting with antibody 6687. […]
Aβ was immunoprecipitated from conditioned media collected for 4 h with antibody 3926, separated on Tris-Tricine gels and detected by immunoblotting with antibody 6E10 using a chemiluminescent detection system (Tropix, USA).

γ-secretase [3] = target: T1, γ-secretase; assay: Analysis of CTFγ and βAPP CTFs in membrane fractions of inhibitor-treated HEK 293 cells stably transfected with swAPP (immunoprecipitation/immunoblotting with antibody 6687); format: cell-based; details: increasing concentrations of DAPT for 4 h
Experimental: FIG. 1: Identification of in vivo produced CTFγ in human cells and mouse brain according to Example 1: (A) Membrane fractions of HEK 293 cells stably transfected with Swedish mutant βAPP695 (swAPP) were analyzed by combined immunoprecipitation/immunoblotting with antibody 6687 to the C-terminus of βAPP. Three βAPP CTFs were detected (C99 (=CTFβ), C83 (=CTFα), and the approximately 6 kDa CTFγ). The same βAPP CTFs including the approximately 6 kDa CTFγ were also observed by immunoblotting with antibody 6687 in mouse brain. (B) The γ-secretase inhibitor DAPT inhibits CTFγ production. HEK 293 cells stably transfected with swAPP were treated with the indicated concentrations of DAPT for 4 h. Upper and middle panel: Membrane fractions were prepared and analyzed for βAPP CTFs by combined immunoprecipitation/immunoblotting with antibody 6687. […] Lower panel: Conditioned media were analyzed for secreted Aβ by combined immunoprecipitation/immunoblotting with antibodies 3926/6E10. […] (C) CTFγ production is dependent on biologically active presenilins. Membrane fractions from control cells expressing PS1 wt or cells stably expressing PS1 D385N were analyzed by combined immunoprecipitation/immunoblotting with antibody 6687. […]
CTFγ was analyzed by combined immunoprecipitation/westernblotting with antibody 6687 of membrane extracts from stably transfected HEK 293 cells or from mouse brain. […]

C[C@H](NC(=O)Cc1cc(F)cc(F)c1)C(=O)N[C@H](C(=O)OC(C)(C)C)c1ccccc1 [DAPT, N-[N-(3,5-difluorophenacetyl)-L-alanyl]-S-phenylglycin t-butyl ester]
in vitro CTFγ generation (γ-secretase [1]; membrane preparations at 37° C., S100 fraction, FIG. 2B left panel): significantly reduce CTFγ generation; also recorded: efficiently reduced in vitro generation of CTFγ | remaining in vitro CTFγ production (γ-secretase [1]; membranes from cells expressing the inactive PS1 D385N mutation, FIG. 2D): reduces the remaining in vitro CTFγ production; also recorded: further reduced | secreted Aβ generation (γ-secretase [2]): dose dependent inhibition; also recorded: severely reduced Aβ production | CTFγ generation (γ-secretase [3]; FIG. 1B middle panel): significant block of CTFγ generation; also recorded: dose dependent inhibition of CTFγ generation | CTFβ and CTFα levels (γ-secretase [3]; FIG. 1B upper panel): build up of CTFβ and CTFα; also recorded: increase of βAPP CTFβ and CTFα
